The supplement of paper PMC10307832

Tests used:
Assay in all cases: relative viability (nuclei count vs DMSO), 5 days (fraction); higher = more cells survive
NCI-H2405 = system: NCI-H2405
Summary of the method: (§1)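 Each reported value is a median over duplicate plates. It expresses relative viability: treated-well nuclei count divided by vehicle-well nuclei count. Lung cancer cell lines in 1536-well plates were dosed by pin tool a day after seeding, alone with one drug or with a fixed anchor-drug dose plus five library-drug doses (not always all listed) in √10 steps, and nuclei were counted after 5 days.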

HCC-44 = system: HCC-44
Summary of the method: as §1

NCI-H1944 = system: NCI-H1944
Summary of the method: as §1

NCI-H650 = system: NCI-H650
Summary of the method: as §1

NCI-H2085 = system: NCI-H2085
Summary of the method: as §1

SK-MES-1 = system: SK-MES-1
Summary of the method: as §1

NCI-H1793 = system: NCI-H1793
Summary of the method: as §1

NCI-H1395 = system: NCI-H1395
Summary of the method: as §1

NCI-H520 = system: NCI-H520
Summary of the method: as §1

NCI-H2087 = system: NCI-H2087
Summary of the method: as §1

LCLC-103H = system: LCLC-103H
Summary of the method: as §1

NCI-H2023 = system: NCI-H2023
Summary of the method: as §1

COR-L23 = system: COR-L23
Summary of the method: as §1

LU99A = system: LU99A
Summary of the method: as §1

ChaGo-K-1 = system: ChaGo-K-1
Summary of the method: as §1

EMC-BAC-2 = system: EMC-BAC-2
Summary of the method: as §1

H3255 = system: H3255
Summary of the method: as §1

HCC-827 = system: HCC-827
Summary of the method: as §1

NCI-H838 = system: NCI-H838
Summary of the method: as §1

NCI-H1651 = system: NCI-H1651
Summary of the method: as §1

EPLC-272H = system: EPLC-272H
Summary of the method: as §1

SMILES: COc1cc2nccc(Oc3ccc(NC(=O)Nc4cc(C)on4)c(Cl)c3)c2cc1OC [Tivozanib] + CC(=O)Nc1cccc(-n2c(=O)n(C3CC3)c(=O)c3c(Nc4ccc(I)cc4F)n(C)c(=O)c(C)c32)c1 [Trametinib] (partner 0.02 µM)
- relative viability (NCI-H2405; first compound 0.005 µM): 0.543
- relative viability (NCI-H2405; first compound 0.01581 µM): 0.664
- relative viability (NCI-H2405; first compound 0.05 µM): 0.607
- relative viability (NCI-H2405; first compound 0.1581 µM): 0.499
- relative viability (NCI-H2405; first compound 0.5 µM): 0.554
- relative viability (HCC-44; first compound 0.005 µM): 0.992
- relative viability (HCC-44; first compound 0.01581 µM): 1.09
- relative viability (HCC-44; first compound 0.05 µM): 1.05
- relative viability (HCC-44; first compound 0.1581 µM): 1.09
- relative viability (HCC-44; first compound 0.5 µM): 1.07
- relative viability (NCI-H1944; first compound 0.005 µM): 0.344
- relative viability (NCI-H1944; first compound 0.01581 µM): 0.453
- relative viability (NCI-H1944; first compound 0.05 µM): 0.399
- relative viability (NCI-H1944; first compound 0.1581 µM): 0.423
- relative viability (NCI-H1944; first compound 0.5 µM): 0.455
- relative viability (NCI-H650; first compound 0.005 µM): 0.942
- relative viability (NCI-H650; first compound 0.01581 µM): 1.05
- relative viability (NCI-H650; first compound 0.05 µM): 1.05
- relative viability (NCI-H650; first compound 0.1581 µM): 0.97
- relative viability (NCI-H650; first compound 0.5 µM): 0.909
- relative viability (NCI-H2085; first compound 0.005 µM): 0.51
- relative viability (NCI-H2085; first compound 0.01581 µM): 0.602
- relative viability (NCI-H2085; first compound 0.05 µM): 0.543
- relative viability (NCI-H2085; first compound 0.1581 µM): 0.437
- relative viability (NCI-H2085; first compound 0.5 µM): 0.511
- relative viability (SK-MES-1; first compound 0.005 µM): 0.542
- relative viability (SK-MES-1; first compound 0.01581 µM): 0.602
- relative viability (SK-MES-1; first compound 0.05 µM): 0.558
- relative viability (SK-MES-1; first compound 0.1581 µM): 0.542
- relative viability (SK-MES-1; first compound 0.5 µM): 0.7
- relative viability (NCI-H1793; first compound 0.005 µM): 0.305
- relative viability (NCI-H1793; first compound 0.01581 µM): 0.457
- relative viability (NCI-H1793; first compound 0.05 µM): 0.471
- relative viability (NCI-H1793; first compound 0.5 µM): 0.445
- relative viability (NCI-H1395; first compound 0.005 µM): 0.992
- relative viability (NCI-H1395; first compound 0.01581 µM): 0.961
- relative viability (NCI-H1395; first compound 0.05 µM): 1.17
- relative viability (NCI-H1395; first compound 0.1581 µM): 0.952
- relative viability (NCI-H1395; first compound 0.5 µM): 0.938
- relative viability (NCI-H520; first compound 0.005 µM): 0.658
- relative viability (NCI-H520; first compound 0.01581 µM): 0.771
- relative viability (NCI-H520; first compound 0.05 µM): 0.612
- relative viability (NCI-H520; first compound 0.1581 µM): 0.475
- relative viability (NCI-H520; first compound 0.5 µM): 0.646
- relative viability (NCI-H2087; first compound 0.005 µM): 0.147
- relative viability (NCI-H2087; first compound 0.01581 µM): 0.211
- relative viability (NCI-H2087; first compound 0.05 µM): 0.193
- relative viability (NCI-H2087; first compound 0.1581 µM): 0.166
- relative viability (NCI-H2087; first compound 0.5 µM): 0.243
- relative viability (LCLC-103H; first compound 0.005 µM): 0.673
- relative viability (LCLC-103H; first compound 0.01581 µM): 0.78
- relative viability (LCLC-103H; first compound 0.05 µM): 0.694
- relative viability (LCLC-103H; first compound 0.1581 µM): 0.729
- relative viability (LCLC-103H; first compound 0.5 µM): 0.695
- relative viability (NCI-H2023; first compound 0.005 µM): 0.526
- relative viability (NCI-H2023; first compound 0.01581 µM): 0.603
- relative viability (NCI-H2023; first compound 0.05 µM): 0.606
- relative viability (NCI-H2023; first compound 0.1581 µM): 0.61
- relative viability (NCI-H2023; first compound 0.5 µM): 0.498
- relative viability (COR-L23; first compound 0.005 µM): 0.542
- relative viability (COR-L23; first compound 0.01581 µM): 0.577
- relative viability (COR-L23; first compound 0.05 µM): 0.588
- relative viability (COR-L23; first compound 0.1581 µM): 0.421
- relative viability (COR-L23; first compound 0.5 µM): 0.545
- relative viability (LU99A; first compound 0.005 µM): 0.626
- relative viability (LU99A; first compound 0.01581 µM): 0.496
- relative viability (LU99A; first compound 0.05 µM): 0.61
- relative viability (LU99A; first compound 0.1581 µM): 0.396
- relative viability (LU99A; first compound 0.5 µM): 0.563
- relative viability (ChaGo-K-1; first compound 0.005 µM): 0.853
- relative viability (ChaGo-K-1; first compound 0.01581 µM): 0.89
- relative viability (ChaGo-K-1; first compound 0.05 µM): 0.875
- relative viability (ChaGo-K-1; first compound 0.1581 µM): 0.859
- relative viability (ChaGo-K-1; first compound 0.5 µM): 0.868
- relative viability (EMC-BAC-2; first compound 0.005 µM): 0.886
- relative viability (EMC-BAC-2; first compound 0.01581 µM): 0.844
- relative viability (EMC-BAC-2; first compound 0.05 µM): 0.905
- relative viability (EMC-BAC-2; first compound 0.1581 µM): 0.827
- relative viability (EMC-BAC-2; first compound 0.5 µM): 0.952
- relative viability (H3255; first compound 0.005 µM): 0.531
- relative viability (H3255; first compound 0.01581 µM): 0.61
- relative viability (H3255; first compound 0.05 µM): 0.659
- relative viability (H3255; first compound 0.1581 µM): 0.608
- relative viability (H3255; first compound 0.5 µM): 0.59
- relative viability (HCC-827; first compound 0.005 µM): 0.52
- relative viability (HCC-827; first compound 0.01581 µM): 0.543
- relative viability (HCC-827; first compound 0.05 µM): 0.571
- relative viability (HCC-827; first compound 0.1581 µM): 0.527
- relative viability (HCC-827; first compound 0.5 µM): 0.533
- relative viability (NCI-H838; first compound 0.005 µM): 0.514
- relative viability (NCI-H838; first compound 0.01581 µM): 0.555
- relative viability (NCI-H838; first compound 0.05 µM): 0.552
- relative viability (NCI-H838; first compound 0.1581 µM): 0.34
- relative viability (NCI-H838; first compound 0.5 µM): 0.504
- relative viability (NCI-H1651; first compound 0.005 µM): 0.816
- relative viability (NCI-H1651; first compound 0.01581 µM): 0.808
- relative viability (NCI-H1651; first compound 0.05 µM): 0.821
- relative viability (NCI-H1651; first compound 0.1581 µM): 0.866
- relative viability (NCI-H1651; first compound 0.5 µM): 0.828
- relative viability (EPLC-272H; first compound 0.005 µM): 0.243
- relative viability (EPLC-272H; first compound 0.01581 µM): 0.277
- relative viability (EPLC-272H; first compound 0.05 µM): 0.27
- relative viability (EPLC-272H; first compound 0.1581 µM): 0.235
- relative viability (EPLC-272H; first compound 0.5 µM): 0.246
